According to patent US20010043936A1, “CHEMICAL COMPOSITION” (priority 1997, published 2001):

Columns and labels:
Mixed Fungi = assay: Inoculation test of preserved cream formulation with mixed fungi, surviving organisms counted; type: cell-based; conditions: control: IPBC 25 ppm, PhOH 0 ppm in cream
Experimental: A batch of a cream formulation comprising an oil-in-water emulsion containing 7.5 wt % Crodex A (an emulsifying wax ex-Croda Chemicals), 5.0 wt % propylene glycol and 87.5 wt % sterile water was prepared using a homogenising mixer.
Portions of the cream formulation were admixed with a preservative system comprising iodopropynyl butyl carbamate and phenoxyethanol at varying weight ratios of iodopropynyl butyl carbamate to phenoxyethanol. In each case the content of the iodopropynyl butyl carbamate in the cream formulation was kept constant at a level of 0.0025 wt % with respect of the total weight of the formulation.
Each portion of the formulation was divided into two. One specimen was inoculated with 7.5×10^7 mixed bacteria per g of cream. The other specimen was inoculated with 2.4×10^6 mixed fungi per g of cream.
For each specimen the number of surviving organisms was determined at 0 hours, […] and 72 hours after inoculation.

Mixed Bacteria = assay: Inoculation test of preserved cream formulation with mixed bacteria, surviving organisms counted; type: cell-based; conditions: control: IPBC 25 ppm, PhOH 0 ppm in cream

**Q.** What does the source list for iodopropynyl butyl carbamate [IPBC]?
**A.** organisms surviving, Mixed Fungi, 0 Hours (Mixed Fungi; 0 Hours): 8 × 10^5; organisms surviving, Mixed Fungi, 24 Hours (Mixed Fungi; 24 Hours): 1.2 × 10^5; organisms surviving, Mixed Fungi, 72 Hours (Mixed Fungi; 72 Hours): 5.2 × 10^4; organisms surviving, Mixed Bacteria, 0 Hours (Mixed Bacteria; 0 Hours): TNTC; organisms surviving, Mixed Bacteria, 24 Hours (Mixed Bacteria; 24 Hours): 1.8 × 10^6; organisms surviving, Mixed Bacteria, 72 Hours (Mixed Bacteria; 72 Hours): 2.9 × 10^5
